Measured values reported in PMC11358443, “Polymodal K^+ channel modulation contributes to dual analgesic and anti-inflammatory actions of traditional botanical medicines” (Communications Biology, 2024).

What was measured:
TREK-1 = details: read-out: TREK-1 activation EC50; cited from earlier work
Kv7.5 [1] = target: T1, Kv7.5 (Homo sapiens, UniProt Q9NR82); experiment: TEVC electrophysiology, Xenopus oocytes expressing Kv7.5; assay type: cell-based; details: 100 µM
Procedure: (§1) We generated human potassium channel cRNA transcripts with the mMessage mMachine kit (Thermo Fisher Scientific, Waltham, MA, USA) according to manufacturer’s instructions, after vector linearization, from cDNA sub-cloned into expression vectors (pTLNx, pXOOM and pMAX). We injected Xenopus laevis oocytes (Xenoocyte, Dexter, MI, USA) with the channel cRNAs (0.5–10 ng) and incubated the oocytes at 16 °C for 1–4 days prior to electrophysiological recording.
(§2) We performed TEVC at 20–23 °C with an OC-725C amplifier (Warner Instruments, Hamden, CT, USA) and pClamp10 software. Chemicals for recording and oocyte storage solutions were from Sigma-Aldrich (St. Louis, MO). Bath solution contained (in mM): 96 NaCl, 4 KCl, 1 MgCl2, 1 CaCl2, 10 HEPES (pH 7.6). Pipettes were 1–2 MΩ resistance when filled with 3 M KCl. We recorded currents in response to voltage pulses between −120 mV or −80 mV and +40 mV at 10 mV intervals from a holding potential of −80 mV, to yield current–voltage relationships and examine activation kinetics. We recorded and analyzed data using Clampfit (Molecular Devices, Sunnyvale, CA, USA) and Graphpad Prism software (GraphPad, San Diego, CA, USA), stating values as mean ± SEM. We calculated the voltage dependence of activation (V0.5) by measuring tail currents at a voltage pulse of −30 mV (Kv7) or −50 mV (Kv1), then fitted the tail current/voltage relationship with a single Boltzmann function:1 g=(A1−A2)/{1+exp[V1/2−V/Vs]}y+A2 where g is the normalized tail conductance, A1 is the initial value at −∞, A2 is the final value at +∞, V1/2 is the half-maximal voltage of activation and Vs the slope factor. We fitted activation and deactivation kinetics with single exponential functions.

Kv1.1 [2] = target: T2, Kv1.1 (Homo sapiens, UniProt Q09470); experiment: TEVC electrophysiology, Xenopus oocytes expressing Kv1.1; assay type: cell-based; details: 100 µM; for Slope / V0.5 Normalized tail current / V0.5 non-normalized tail current: paired control in same table
T2 sequence (Q09470 whole entry): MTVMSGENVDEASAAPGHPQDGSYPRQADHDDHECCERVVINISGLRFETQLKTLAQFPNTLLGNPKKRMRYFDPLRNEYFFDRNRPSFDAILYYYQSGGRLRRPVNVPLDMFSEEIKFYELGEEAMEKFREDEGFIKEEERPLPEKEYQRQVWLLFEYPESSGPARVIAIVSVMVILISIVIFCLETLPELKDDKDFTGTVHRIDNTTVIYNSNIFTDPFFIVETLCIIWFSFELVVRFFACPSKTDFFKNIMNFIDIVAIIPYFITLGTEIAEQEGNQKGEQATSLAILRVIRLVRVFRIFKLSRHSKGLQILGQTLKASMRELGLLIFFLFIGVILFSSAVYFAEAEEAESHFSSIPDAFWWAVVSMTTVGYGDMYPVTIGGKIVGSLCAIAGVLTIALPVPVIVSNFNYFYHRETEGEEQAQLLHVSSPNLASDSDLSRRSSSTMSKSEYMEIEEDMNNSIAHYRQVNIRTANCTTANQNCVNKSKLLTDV
Procedure: as §1, §2

C57BL/6 mice = system: C57BL/6 mice; parameters: method as in Abbott et al., 2021 Front. Physiol. 12:777057; details: 5 mg/kg morphine; ref Abbott et al., 2021 Front. Physiol. 12:777057; cited from earlier work
Kv7.5 [3] = target: T1, Kv7.5; parameters: method as in PMID 35997997; details: cited from earlier work
Kv1.1 [4] = target: T2, Kv1.1; parameters: method as in PMID 33093824; details: cited from earlier work

T1 sequence (Q9NR82 whole entry): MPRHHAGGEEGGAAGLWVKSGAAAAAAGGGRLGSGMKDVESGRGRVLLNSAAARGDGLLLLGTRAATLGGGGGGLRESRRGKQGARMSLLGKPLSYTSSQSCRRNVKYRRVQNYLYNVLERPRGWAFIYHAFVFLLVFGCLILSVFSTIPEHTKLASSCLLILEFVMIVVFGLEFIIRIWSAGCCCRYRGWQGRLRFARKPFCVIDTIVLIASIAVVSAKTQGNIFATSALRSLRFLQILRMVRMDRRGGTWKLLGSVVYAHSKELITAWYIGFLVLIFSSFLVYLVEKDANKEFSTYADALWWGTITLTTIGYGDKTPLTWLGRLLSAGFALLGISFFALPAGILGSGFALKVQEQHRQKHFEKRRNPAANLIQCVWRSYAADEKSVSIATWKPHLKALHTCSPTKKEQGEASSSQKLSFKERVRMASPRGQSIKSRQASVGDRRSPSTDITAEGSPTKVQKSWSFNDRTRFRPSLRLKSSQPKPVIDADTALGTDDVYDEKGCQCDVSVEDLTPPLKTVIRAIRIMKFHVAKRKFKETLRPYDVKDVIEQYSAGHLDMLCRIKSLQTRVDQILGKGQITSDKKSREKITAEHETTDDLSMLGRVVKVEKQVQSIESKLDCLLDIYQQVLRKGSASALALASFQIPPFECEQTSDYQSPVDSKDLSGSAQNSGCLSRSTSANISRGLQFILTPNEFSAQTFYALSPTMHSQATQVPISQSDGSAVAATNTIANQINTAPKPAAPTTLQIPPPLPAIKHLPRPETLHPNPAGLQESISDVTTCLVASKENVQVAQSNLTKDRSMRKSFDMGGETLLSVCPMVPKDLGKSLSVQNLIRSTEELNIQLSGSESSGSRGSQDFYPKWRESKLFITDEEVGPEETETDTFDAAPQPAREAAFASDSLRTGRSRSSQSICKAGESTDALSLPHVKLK

CS(=O)(=O)Nc1ccc(C(=O)NCc2ccc(Cl)cc2Cl)cc1 [ML335]
EC50 (TREK-1): 14 µM

O=C(OC[C@H]1OC(O)[C@@](O)(COC(=O)c2cc(O)c(O)c(O)c2)[C@@H]1O)c1cc(O)c(O)c(O)c1 (stereo partly drawn) [hamamelitannin]
activity on Kv7.5 expressed in oocytes (Kv7.5 [1]): inactive
Slope (Kv7.5 [1]; control 7.66 ± 0.33): 7.57 ± 0.17 mV
V0.5 Normalized tail current (Kv7.5 [1]; control -48.15 ± 1.14): -47.96 ± 0.99 mV
V0.5 non-normalized tail current (Kv7.5 [1]; control -50.27 ± 1.37): -49.87 ± 1.44 mV
effect on EM of oocytes expressing Kv1.1 (Kv1.1 [2]): hyperpolarized the EM
effect on Kv1.1 (Kv1.1 [2]): negative-shifted the voltage dependence of Kv1.1 activation
Slope (Kv1.1 [2]): 6.51 ± 0.73 mV
V0.5 Normalized tail current (Kv1.1 [2]): -35.11 ± 1.66 mV
V0.5 non-normalized tail current (Kv1.1 [2]): -36.25 ± 1.77 mV

Cc1cc(Cl)ccc1OCCNC(=O)c1cccs1 [ML402]
EC50 (TREK-1): 14 µM

Oc1cc(O)c2c(c1)OC(c1ccc(O)c(O)c1)C(O)C2 (single isomer, unassigned; (+)) [catechin hydrate, (+)-Catechin hydrate]
Slope (Kv1.1 [2]): 6.10 ± 0.15 mV
V0.5 Normalized tail current (Kv1.1 [2]): -37.70 ± 0.45 mV
V0.5 non-normalized tail current (Kv1.1 [2]): -39.60 ± 0.63 mV

CN1CC[C@]23c4c5ccc(O)c4O[C@H]2[C@@H](O)C=C[C@H]3[C@H]1C5 [morphine]
attenuation of early phase paw-licking (C57BL/6 mice): 40%

c1ccc(-c2nnn[nH]2)c(Nc2cccc3c2CCCC3)c1 [BL-1249, (5,6,7,8-tetrahydro-naphthalen-1-yl)-[2-(1H-tetrazol-5-yl)-phenyl]-amine]
EC50 (TREK-1): 1.5 µM

O=C(O)c1cc(O)c(O)c(O)c1 [gallic acid]
activity on Kv7.5 compared with tannic acid (Kv7.5 [3]): active but less efficacious
effect on voltage dependence of Kv1.1 (Kv1.1 [4]): negative-shift
